Data reported in US20050287514A1, “Compositions and methods useful for HCV infection” (Vertex Pharmaceuticals Incorporated, priority 2003, published 2005).

System: HCV
Experiment: Inhibition of HCV infection of cryopreserved human fetal liver cells (cell-associated HCV RNA by multiplex RT-PCR)
Type: cell-based
Conditions: VX-950 at 0.2 uM or greater; cryopreserved human fetal liver cells in HDM2; 15 hours inoculation plus additional 47 hours incubation
Protocol: FIG. 3 depicts the inhibition of HCV infection of cryopreserved human fetal liver cells by the HCV NS3·4a protease inhibitor VX-950 (see WO 02/18369).
Cryopreserved human fetal liver cells were thawed and allowed to adhere to wells of a collagen coated 96-well plate for 6 hours at 37° C. Non-adherent cells were removed and medium replaced with hormonally defined medium containing DMEM, BSA, nicotinamide, EGF, insulin, transferrin, and hydrocortisone (HDM2). The wells were inoculated with HCV in the presence of different concentrations of VX-950 and incubated for 15 hours at 37° C. The non-adsorbed virus was removed, the cultures washed twice with DMEM, then fresh HDM2 containing the same concentration of VX-950 was added. After incubation for an additional 47 hours, the wells were rinsed twice with PBS then the cells lysed with chaotropic buffer and RNA isolated using the Qiagen 96-well RNeasy procedure. HCV RNA was quantitated using the multiplex RT-PCR method and the mean and standard deviation of the triplicate samples at each concentration of inhibitor are presented (HCV copy number per well). […] See, FIG. 3.

CCC[C@H](NC(=O)C1[C@H]2CCC[C@H]2CN1C(=O)[C@@H](NC(=O)[C@@H](NC(=O)c1cnccn1)C1CCCCC1)C(C)(C)C)C(=O)C(=O)NC1CC1 (stereo partly shown) [VX-950] was tested, and the “inhibition of HCV replication (HCV RNA copy number per well)” value was “nearly complete inhibition of HCV replication”.
